From US20200368247A1, “CENICRIVIROC FOR THE TREATMENT OF FIBROSIS” (Tobira Therapeutics, Inc., priority 2014, published 2020)

Legend:
[1] = Study 201 safety (adverse events, laboratory); assay type: in vivo
Description: Participants were required to be antiretroviral treatment-experienced, CCR5 antagonist-naive, with HIV-1 RNA levels of at least 5000 copies/mL and CD4+ cell counts of at least 250 cells/mm^3 was performed.
There were no deaths, SAEs, or other significant AEs, and there were no discontinuations because of an AE. Most treatment-emergent AEs were mild or moderate in severity. […] The most common (≥10%) treatment-emergent AEs in this study were nausea (18.5%), diarrhea (16.7%), headache (14.8%), and fatigue (11.0%).
There were 6 subjects with ALT and/or AST elevations in the 25 mg (2 subjects), 50 mg (2 subjects), 100 mg (1 subject), and 150 mg (1 subject) dose groups, and 1 subject with an AST elevation in the placebo group during the observation period. All elevations were Grade 1, were isolated except in 2 subjects (both in the 50-mg dose group) who had more than a single elevation, and resolved without sequelae. […] The AST elevations observed in subjects in the 100 mg and 150 mg dose groups during treatment (observed in 1 subject in each dose group), returned to normal values during continuation of treatment.

[2] = tested on: male CD-1 mice with unilateral ureter occlusion; assay: Mouse UUO model of renal fibrosis; assay type: in vivo
Description: Test animals were allocated to weight-matched treatment groups on the day prior to the surgical procedure (Day −1). Male CD-1 mice (N=51; age, 7-8 weeks) underwent either sham surgery or total ligation of the right ureter, i.e. UUO, via aseptic laparotomy (FIG. 12). […] Another group received the anti-transforming growth factor TGF-β1 antibody, compound 1D11 (positive control) at 3 mg/kg/day from Days −1 to 4, injected intraperitoneally once daily, and vehicle control from Days 0 to 5. […] On Day 5, animals were anaesthetised, blood and tissues were collected prior to sacrifice.
Study endpoints included: a) body and kidney weights; b) fibrosis in obstructed kidney evaluated via histological quantitative image analysis of picrosirius red staining (ten images/depth/kidney obtained and assessed in a blinded fashion using light microscopy [at 200×] to enable sampling of 60-70% of the renal cortical area) and quantified by a composite Collagen Volume Fraction (CVF [% total area imaged]) score expressed as the average positive stain across three anatomically distinct ([…] apart) tissue sections, or depths, from the obstructed kidney; c) hydroxyproline content of frozen renal cortical tissue biopsies as assessed by biochemical analyses; d) mRNA expression of profibrotic and inflammatory biomarkers (including MCP-1, Collagen 1a1, Collagen 3a1, TGF-β1, Fibronectin-1, α-smooth muscle actin (α-SMA) and connective tissue growth factor-1 (CTGF-1); assessed via Luminex® (Life Technologies™, Carlsbad, Calif., USA) assay with relative expression normalised to HPRT (hypoxanthine phosphoribosyltransferase).
Data are expressed as mean±standard error of mean (SEM). Statistical analyses were performed using GraphPad Prism® (GraphPad Software, Inc., San Diego, Calif., USA). Treatment differences between sham-surgery+vehiclecontrol and UUO+vehicle-control groups, and between UUO+vehicle-control and UUO+compound-1D11 (positive control) groups, were analysed by unpaired t-Test. Treatment differences between UUO+vehicle-control and CVC-dose groups were analysed by one-way ANOVA (analysis of variance) with Dunnett's test (post-hoc).

[3] = tested on: male Sprague-Dawley rats with TAA-induced fibrosis; assay: Rat model of thioacetamide-induced liver fibrosis and cirrhosis; assay type: in vivo; conditions: 8 weeks
Description: Fibrosis was induced in male Sprague-Dawley rats by intraperitoneal administration of TAA 150 mg/kg 3 times/week for 8 weeks. […] Biochemical, gene expression and histologic evaluations of the liver were conducted.

[4] = Chronic (3- and 9-month) monkey toxicity studies; assay type: in vivo; conditions: 1000 mg/kg/day, 3- and 9-month monkey studies
NASH mice = assay: STAM mouse model of NASH, anti-HCC effects, week 18; conditions: for Body weight / Maximum diameter of visible tumor nodules (mm) / mice with GS-positive nodules / mice with HCC lesions (HE staining): week 18; for mice that died (survival analysis): 6 to 18 weeks
Description: Group 1-Vehicle: Eighteen NASH mice were orally administered vehicle at a volume of 10 mL/kg twice daily (9:00 and 19:00) from 6 weeks of age.

[5] = Phase 1 studies in healthy volunteer subjects; assay type: in vivo, human
Source text: The frequency and magnitude of transaminase elevations observed across these studies was consistent with the pattern described for Phase 1 studies in scientific literature. […] In both studies and at all doses CVC presented a favorable adverse event profile. […] No clinically relevant changes in ECG parameters or changes for any vital sign parameters were observed during the 48-week treatment period. No apparent dose or exposure relationship for adverse events, laboratory abnormalities (including CPK, ALT, AST and bilirubin elevations) or dose-limiting toxicities were observed.

[6] = CVC 7 and 20 mg/kg/day, compound 1D11
[7] = CVC-high 100 mg/kg/day, listed as Cenicriviroc
[8] = CVC-low 20 mg/kg/day, listed as Cenicriviroc

SMILES: CCCCOCCOc1ccc(-c2ccc3c(c2)/C=C(/C(=O)Nc2ccc([S@@+]([O-])Cc4cncn4CCC)cc2)CCCN3CC(C)C)cc1 [CVC, (S)-8-[4-(2-Butoxyethoxy)phenyl]-1-isobutyl-N-(4-{[(1-propyl-1H-imidazol-5-yl)methyl]sulfinyl}phenyl)-1,2,3,4-tetrahydro-1-benzazocine-5-carboxamide]
- subjects with ALT and/or AST elevations (Grade 1) ([1]; 25 mg): 2 subjects
- subjects with ALT and/or AST elevations (Grade 1) ([1]; 50 mg): 2 subjects
- subjects with ALT and/or AST elevations (Grade 1) ([1]; 100 mg): 1 subject
- subjects with ALT and/or AST elevations (Grade 1) ([1]; 150 mg): 1 subject
- tolerability ([1]; 25 to 150 mg once daily, 10 days): generally well tolerated at the doses studied
- effect on body weight ([2]; CVC 7 mg/kg/day, compound 1D11 3 mg/kg/day, Day 5): no effect on body weight
- tolerability in UUO mice ([2]; CVC 100 mg/kg/day): terminated early due to moribundity
- effect on obstructed kidney hydroxyproline content ([2]; CVC 7 and 20 mg/kg/day): Neither dose of CVC tested affected UUO-induced increases
- Collagen 1a1, Collagen 3a1, TGF-β1 and Fibronectin-1 mRNA expression vs UUO+vehicle-control [2, 6]: did not reach statistical significance
- MCP-1, α-SMA and CTGF-1 mRNA expression vs UUO+vehicle-control [2, 6]: did not have significant effects
- reduction of fibrosis by collagen morphometry ([3]; Group 1a, 30 mg/kg/day concurrently with TAA): 49%
- reduction of fibrosis by collagen morphometry ([3]; Group 1b, 100 mg/kg/day concurrently with TAA): 38%
- inflammation in clinical pathology parameters or tissue incl. liver [4]: No indication of inflammation
- Body weight (NASH mice; CVC-high 100 mg/kg/day): 20.8 ± 2.7 g
- Maximum diameter of visible tumor nodules (mm) (NASH mice; CVC-high 100 mg/kg/day): 5.3±5.1 mm
- Body weight (NASH mice; [7]): 20.8 ± 2.7 g
- Maximum diameter of visible tumor nodules (mm) (NASH mice; [7]): 5.3 ± 5.1 mm
- mice that died (survival analysis) (NASH mice; CVC-high): Five out of twelve
- mice with GS-positive nodules (NASH mice; CVC-high): seven out of seven
- mice with HCC lesions (HE staining) (NASH mice; CVC-high): six out of seven
- Body weight (NASH mice; CVC-low 20 mg/kg/day): 22.9 ± 3.5 g
- Maximum diameter of visible tumor nodules (mm) (NASH mice; CVC-low 20 mg/kg/day): 4.8±5.4 mm
- Body weight (NASH mice; [8]): 22.9 ± 3.5 g
- Maximum diameter of visible tumor nodules (mm) (NASH mice; [8]): 4.8 ± 5.4 mm
- mice that died (survival analysis) (NASH mice; CVC-low): Six out of twelve
- mice with GS-positive nodules (NASH mice; CVC-low): five out of six
- mice with HCC lesions (HE staining) (NASH mice; CVC-low): five out of six
- generally well tolerated multiple daily doses ([5]; Phase 1, 10 days): up to 200 mg
- generally well tolerated single doses ([5]; Phase 1, healthy volunteers): up to 800 mg
